From PMC6500773 (Psychopharmacology, 2018)
Where two headings read alike, the source gives them in different places.

Columns and labels:
hDAT [1] = target: T1, hDAT (Homo sapiens, UniProt Q01959); assay: Inhibition of [125I]RTI-55 binding, HEK-hDAT membranes; settings: for fold decrease in hDAT affinity: compared to pentedrone
hSERT [2] = target: T2, hSERT (Homo sapiens, UniProt P31645); assay: Inhibition of [125I]RTI-55 binding, HEK-hSERT membranes
hNET [3] = target: T3, hNET (Homo sapiens, UniProt P23975); assay: biochemical; format: binding
T3 sequence (P23975 whole entry): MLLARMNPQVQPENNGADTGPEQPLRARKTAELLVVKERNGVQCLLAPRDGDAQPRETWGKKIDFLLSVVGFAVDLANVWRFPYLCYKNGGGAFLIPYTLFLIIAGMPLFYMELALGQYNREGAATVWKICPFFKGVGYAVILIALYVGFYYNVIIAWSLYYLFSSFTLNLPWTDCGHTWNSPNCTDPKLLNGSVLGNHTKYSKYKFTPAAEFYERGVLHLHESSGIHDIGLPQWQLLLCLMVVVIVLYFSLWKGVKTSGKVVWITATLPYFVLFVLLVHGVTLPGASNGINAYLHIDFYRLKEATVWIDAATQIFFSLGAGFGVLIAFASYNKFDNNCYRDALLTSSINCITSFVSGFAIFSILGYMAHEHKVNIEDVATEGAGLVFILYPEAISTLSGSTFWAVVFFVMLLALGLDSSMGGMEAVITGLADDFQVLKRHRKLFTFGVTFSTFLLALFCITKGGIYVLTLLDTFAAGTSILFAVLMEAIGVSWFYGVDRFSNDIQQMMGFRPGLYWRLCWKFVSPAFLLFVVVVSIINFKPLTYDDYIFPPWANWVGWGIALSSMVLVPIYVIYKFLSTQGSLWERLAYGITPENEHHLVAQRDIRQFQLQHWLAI

hSERT [4] = target: T2, hSERT; assay: Inhibition of [3H]5-HT uptake by HEK-hSERT cells; format: cell-based; settings: for fold increase in hSERT uptake potency: compared to pentedrone
hDAT [5] = target: T1, hDAT; assay: Inhibition of [3H]DA uptake by HEK-hDAT cells; format: cell-based; settings: for Ratio DAT/SERT: 1/(DAT IC50) divided by 1/(SERT IC50), uptake, higher = more DAT selective
hNET [6] = target: T3, hNET; assay: cell-based
hSERT [7] = target: T2, hSERT; assay: Drug-induced release of preloaded [3H]5-HT from HEK-hSERT cells; format: cell-based; settings: for releasing efficacy at hSERT: [3H]5-HT release; for % maximum release ± sem, hSERT [3H]5-HT: relative to maximal AUC induced by METH (0.3–1 mM)
hDAT [8] = target: T1, hDAT; assay: Drug-induced release of preloaded [3H]DA from HEK-hDAT cells; format: cell-based; settings: for releasing efficacy at hDAT: [3H]DA release; for % maximum release ± sem, hDAT [3H]DA: relative to maximal AUC induced by METH (1 or 10 μM)
hNET [9] = target: T3, hNET; assay: Drug-induced release of preloaded [3H]NE from HEK-hNET cells; format: cell-based; settings: for releasing efficacy at hNET: [3H]NE release; for EC50: read-out: Drug-induced release of [3H]neurotransmitter EC50 ± sem, hNET [3H]NE, HEK-hNET cells; for % maximum release ± sem, hNET [3H]NE: relative to maximal AUC induced by METH (0.3 or 1 μM)
[10] = read-out: Inhibition of [125I]RTI-55 binding Ki ± sem, hDAT, HEK-hDAT membranes
[11] = read-out: Inhibition of [125I]RTI-55 binding Ki ± sem, hNET, HEK-hNET membranes
[12] = read-out: Inhibition of [3H]neurotransmitter uptake IC50 ± sem, hNET [3H]NE, HEK-hNET cells

T1 sequence (Q01959 whole entry): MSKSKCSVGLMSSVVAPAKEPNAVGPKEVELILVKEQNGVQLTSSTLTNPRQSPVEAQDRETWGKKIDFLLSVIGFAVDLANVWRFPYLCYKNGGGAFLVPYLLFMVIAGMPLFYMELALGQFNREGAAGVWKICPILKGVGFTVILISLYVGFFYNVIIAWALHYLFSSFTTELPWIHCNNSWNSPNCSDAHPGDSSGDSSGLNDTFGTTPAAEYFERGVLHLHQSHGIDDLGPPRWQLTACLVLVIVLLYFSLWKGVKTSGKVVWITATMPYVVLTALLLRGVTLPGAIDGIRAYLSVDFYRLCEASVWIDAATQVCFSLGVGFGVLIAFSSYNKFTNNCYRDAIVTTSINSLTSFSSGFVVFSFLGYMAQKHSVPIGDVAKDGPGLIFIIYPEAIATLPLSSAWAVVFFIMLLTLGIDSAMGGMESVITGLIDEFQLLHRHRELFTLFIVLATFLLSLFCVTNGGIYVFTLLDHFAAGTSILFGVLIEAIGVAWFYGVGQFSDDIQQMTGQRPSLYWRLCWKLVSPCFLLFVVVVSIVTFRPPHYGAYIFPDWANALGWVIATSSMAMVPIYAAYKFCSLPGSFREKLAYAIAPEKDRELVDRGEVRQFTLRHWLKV
T2 sequence (P31645 whole entry): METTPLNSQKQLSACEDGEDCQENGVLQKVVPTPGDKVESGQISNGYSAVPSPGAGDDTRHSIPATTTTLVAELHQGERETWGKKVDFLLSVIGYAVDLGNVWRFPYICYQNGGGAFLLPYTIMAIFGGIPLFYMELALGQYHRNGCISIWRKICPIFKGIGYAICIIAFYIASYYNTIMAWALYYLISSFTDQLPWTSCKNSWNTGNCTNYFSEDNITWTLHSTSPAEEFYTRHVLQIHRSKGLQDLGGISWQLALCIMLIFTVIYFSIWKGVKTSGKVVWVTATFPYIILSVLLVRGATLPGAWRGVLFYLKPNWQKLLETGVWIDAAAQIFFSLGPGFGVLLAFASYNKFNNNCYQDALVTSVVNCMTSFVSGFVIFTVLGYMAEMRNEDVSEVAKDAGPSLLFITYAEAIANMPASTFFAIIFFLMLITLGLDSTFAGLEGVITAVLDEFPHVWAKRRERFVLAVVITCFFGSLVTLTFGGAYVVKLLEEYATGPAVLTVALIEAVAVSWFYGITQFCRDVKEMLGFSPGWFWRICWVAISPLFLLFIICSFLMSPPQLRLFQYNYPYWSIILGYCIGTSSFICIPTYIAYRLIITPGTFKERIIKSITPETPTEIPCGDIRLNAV

SMILES | Ki (hDAT [1]) [nM] | Ki (hSERT [2]) [nM] | Ki (hNET [3]) [nM] | IC50 (hSERT [4]) [nM] | IC50 (hDAT [5]) [nM] | Ratio DAT/SERT (hDAT [5]) | IC50 (hNET [6]) [nM] | Ki (hDAT [1]; [10]) [nM] | Ki (hNET [3]; [11]) [nM] | IC50 (hNET [6]; [12]) [nM] | other results
CCCCC(C(=O)c1ccc2c(c1)OCO2)N1CCCC1 (stereo not drawn) [3,4-MDPHP, 3,4-methylenedioxy-α–pyrrolidinohexanophenone] | 19.2 ± 5.1 | 2430 ± 510 | 935 ± 93 | 1340 ± 410 | 8.4 ± 2.2 | 160 | 47 ± 10 |  |  |  | 
CNC(C)C(=O)c1cccc(C)c1 (centres unmarked) [3-MMC, 3-methylmethcathinone] |  |  |  |  |  | 10 |  | 6330 ± 720 | 2850 ± 720 | 84 ± 23 | fold higher hSERT affinity (hSERT [2]; compared to MCAT): ~ 40 fold; fold higher hSERT uptake potency (hSERT [4]; compared to MCAT): 6.5 fold
CCNC(C)C(=O)c1ccc(Cl)cc1 (centres unmarked) [4-CEC, 4-Cl-ethcathinone] |  |  |  |  |  | 0.39 |  | 4170 ± 530 | 16300 ± 5700 | 1720 ± 240 | releasing efficacy at hSERT (hSERT [7]): full releasing efficacy; selectivity for SERT over DAT (uptake potency) (hSERT [4]; uptake inhibition potencies): 3 fold; releasing efficacy at hDAT (hDAT [8]): minimal releasing efficacy; % maximum release ± sem, hDAT [3H]DA (hDAT [8]): 1.17 ± 0.05%; releasing efficacy at hNET (hNET [9]): minimal releasing efficacy; EC50 (hNET [9]): > 100000 nM; % maximum release ± sem, hNET [3H]NE (hNET [9]): 5.9 ± 2.5%
CCCC(NC)C(=O)c1ccc(Cl)cc1 (centres unmarked) [4-CPD, 4-chloro pentedrone] |  |  |  |  |  | 1.3 |  | 1620 ± 400 | 4540 ± 890 | 470 ± 140 | fold decrease in hDAT affinity (hDAT [1]): 4- to 5 fold; fold increase in hSERT uptake potency (hSERT [4]): 15- to 17 fold
CC(C(=O)c1ccc(Cl)cc1)N1CCCC1 (stereo not drawn) [4-Cl-α-PPP, 4’-chloro-α-pyrrolidinopropiophenone] | 1300 ± 450 | 12700 ± 3200 | 3580 ± 920 | 6400 ± 1500 | 730 ± 130 | 8.8 | 1420 ± 380 |  |  |  | 
CCCC(C(=O)c1ccc(Cl)cc1)N1CCCC1 (stereo not drawn) [4-Cl-α-PVP, 4’-chloro-α–pyrrolidinopentiophenone] |  |  |  |  |  | 83 |  | 61 ± 15 | 281 ± 16 | 29.1 ± 6.7 | releasing efficacy at hSERT (hSERT [7]): minimal to no releasing efficacy; % maximum release ± sem, hSERT [3H]5-HT (hSERT [7]): <1%; releasing efficacy at hDAT (hDAT [8]): minimal to no releasing efficacy; % maximum release ± sem, hDAT [3H]DA (hDAT [8]): <1%; releasing efficacy at hNET (hNET [9]): minimal to no releasing efficacy; EC50 (hNET [9]): > 10000 nM; % maximum release ± sem, hNET [3H]NE (hNET [9]): 9.4 ± 6.0%
CCCCC(C(=O)c1ccc(F)cc1)N1CCCC1 (stereo not drawn) [4-F-α-PHP, 4’-fluoro-α–pyrrolidinohexanophenone] | 122 ± 27 | 8010 ± 840 | 1730 ± 250 | 9110 ± 540 | 38.2 ± 4.4 | 240 | 218 ± 29 |  |  |  | 
CCCC(C(=O)c1ccc(F)cc1)N1CCCC1 (stereo not drawn) [4-F-α-PVP, 4-fluoro-α–pyrrolidinopentiophenone] |  |  |  |  |  | 360 |  | 376 ± 70 |  |  | Ki (hNET [3]; read-out: Inhibition of [125I]RTI-55 binding Ki ± sem, hNET): 1100 nM; IC50 (hNET [6]; read-out: Inhibition of [3H]neurotransmitter uptake IC50 ± sem, hNET [3H]NE): 118 nM
CCCC(NCC)C(=O)c1ccc(C)cc1 (stereo not drawn) [4-MEAP, 4-methyl-α-ethylaminopentiophenone] |  |  |  |  |  | 6.4 |  | 123 ± 26 | 576 ± 85 | 83 ± 18 | fold increase in hSERT affinity (hSERT [2]; compared to pentedrone): 20 fold; fold increase in hSERT uptake potency (hSERT [4]): 8 fold; fold decrease in hDAT selectivity (hDAT [5]; compared to pentedrone): 8 fold; fold decrease in DAT selectivity (hDAT [5]; compared to α-EPP): 10 fold
CCCC(NC)C(=O)c1ccc(C)cc1 (centres unmarked) [4-MPD, 4-methyl pentedrone] |  |  |  |  |  |  |  | 1450 ± 310 | 3390 ± 480 | 307 ± 61 | fold decrease in hDAT affinity (hDAT [1]): 4- to 5 fold; fold increase in hSERT uptake potency (hSERT [4]): 15- to 17 fold
CCCCC(C(=O)c1ccc(C)cc1)N1CCCC1 (stereo not drawn) [4-Me-α-PHP, 4’-methyl-α–pyrrolidinohexanophenone] | 23 ± 6.2 | 4780 ± 260 | 750 ± 160 | 1580 ± 400 | 13.2 ± 3.6 | 120 | 42 ± 11 |  |  |  | 
CC(N)Cc1ccc2ccoc2c1 (stereo not drawn) [6-APB, α-methyl-6-benzofuranethanamine] |  |  |  |  |  | 2.4 |  | 1040 ± 160 | 2450 ± 200 | 19.8 ± 4.4 | releasing efficacy at hSERT (hSERT [7]): fully efficacious releaser; % maximum release ± sem, hSERT [3H]5-HT (hSERT [7]): 119 ± 16%; % maximum release ± sem, hDAT [3H]DA (hDAT [8]): 68.2 ± 9.0%; EC50 (hNET [9]): 51 ± 12 nM; % maximum release ± sem, hNET [3H]NE (hNET [9]): 69 ± 12%
CCNC(C)Cc1ccc2ccoc2c1 (stereo not drawn) [6-EAPB, N-ethyl-α-methyl-6-benzofuranethanamine] |  |  |  |  |  | 1.4 |  | 89 ± 22 | 772 ± 44 | 42 ± 14 | 
